Test results as given in patent US5670331A, “Methods for optimizing fluoropyrimidine cancer therapy” (The University of Alabama Research Foundation, priority 1995, dated 1997).

What was measured:
Type in all cases: biochemical
Nucleoside Kinases [1] = experiment: Pyrimidine nucleoside kinase kinetics, human liver; conditions: substrate of nucleoside kinases; for Km / Vmax: 37° C.
Procedure: (§1) Enzyme activities were determined isotopically as the products, nucleotides, nucleosides, bases, β-amino-acid, etc. formed from their respective radiolabeled substrates, bases and/or nucleosides. All assays were run at 37° C. under conditions where activity was linear with time and enzyme concentration. […] Reactions were started by the addition of extract and stopped by boiling in a water bath for 2 minutes followed by freezing. Precipitated proteins were removed by centrifugation. A 10-25 μl aliquot of the supernatant fluid was spotted on the appropriate TLC plate and developed in the appropriate solvent system. Separated substrate and product(s) were counted on a TLC Analyzer (Berthold). The amounts of substrate and product(s) were calculated on a percentage basis.
(§2) The assay mixture contained 50 mM Tris-Cl, pH 7.4; 3-60 μM radiolabeled nucleoside ([2-^14 C]thymidine or [2-^14 C]5-fluoro-2'-deoxyuridine); 2.5 mM ATP; 5 mM creatine phosphate; 25 mM NaF; and 50 μl of sonicate to which was added a dash of phosphocreatine kinase in a final volume of 100 μl. After termination of the reaction and centrifugation, the supernatant was spotted on silica gel TLC plates. The plates were developed in a solution of chloroform:methanol:acetic acid (56:24:4, v/v/v) to separate the nucleosides which migrate with the front from the nucleotides which remain at the origin. When assaying patients, the assays are run at about 4.4 μM 5-fluoro-2'-deoxyuridine or about 6.4 μM thymidine.
(§3) The apparent Km and Vmax, as well as the enzyme efficiency values were calculated using computer programs based on Wilkinson-Cleland procedures. Because of the number of patients used, a two-tailed t-test was applied to determine the degree of significance of the difference in enzymatic activities between healthy volunteers, tolerant and intolerant subjects.

Nucleoside Phosphorylase [2] = experiment: Pyrimidine nucleoside phosphorylase kinetics, human liver; conditions: substrate of nucleoside phosphorylase; for Km / Vmax: 37° C.
Procedure: as §1
(§4) The assay mixture contained Buffer A, 33-600 μM radiolabeled nucleoside ([2-^14 C]uridine, [2-^14 C]thymidine or [2-^14 C]5-fluoro-2'-deoxyuridine), and 50 μl of sonicate in a final volume of 100 μl. After termination of the reaction and centrifugation, the nucleosides were separated from their respective nucleobases on silica gel TLC plate developed with chloroform:methanol:acetic acid (90:5:5 v/v/v). When assaying patients, the assay is run at about 226 μM 5-fluoro-2'-deoxyuridine, about 169 μM thymidine or about 114 μM uridine.
as §3

Nucleoside Kinases [3] = experiment: Pyrimidine nucleoside kinase kinetics, human mononuclear cell sonicate; conditions: substrate of nucleoside kinases, human mononuclear cells; for Km / Vmax: 37° C.
Procedure: (§5) All procedures are carried out at room temperature, using solutions preheated to 37° C. Blood samples were withdrawn in aliquots of 30 ml into 60 ml syringes, containing 5 ml heparin (1,000 Units/ml). Blood and heparin were immediately mixed by inverting the syringes. The mixture was layered onto HISTOPAQUE-1077 (15 ml), in a 50 ml conical centrifuge tube and centrifuged for 30 minutes at 400 ×g. The upper layer was then aspirated with a Pasteur pipet and discarded, while the opaque interface containing the mononuclear cells was aspirated into a fresh conical tube containing 10 ml growth medium (RPMI-1640 medium: 5% FBS:0.050M HEPES, pH 7.4) and mixed by inverting the tubes. The cells were pelleted by centrifugation for 10 minutes at 250 ×g then resuspended into fresh growth medium by gentle aspiration with a Pasteur pipet. After two more washing, the cells were suspended into 10 ml fresh growth media.
(§6) The following buffers were used: Buffer A (20 mM potassium phosphate, pH 8.0) and Buffer B (50 mM Tris-Cl, pH 7.5). Mononuclear cells were washed 2-3 times as described above except that buffer B was substituted for the growth medium. The cells were then sonicated (1:2 v/v) in buffer B using a sonic dismembrator (Fisher model 300). The sonicate was then used as the enzyme source.
as §1, §2, §3

Nucleoside Phosphorylase [4] = experiment: Pyrimidine nucleoside phosphorylase kinetics, human mononuclear cell sonicate; conditions: substrate of nucleoside phosphorylase, human mononuclear cells; for Km / Vmax: 37° C.
Procedure: as §5, §6, §1, §4, §3

Which “Vmax /Km” value (Nucleoside Kinases [1]) does the source give for `O=c1[nH]c(=O)n([C@@H]2O[C@H](CO)[C@@H](O)[C@H]2O)cc1F` [5-Fluorouridine] here?
Its value is 0.50 min^-1 × 10^3.

And the Km (Nucleoside Kinases [1])?
The Km was 25.1 µM.

And the Vmax (Nucleoside Kinases [1])?
Its Vmax is 0.013 nmol/min/mg.

What about the “Vmax /Km” value (Nucleoside Phosphorylase [2]) of the same compound?
Its value is 8.62 min^-1 × 10^3.

What about the Km (Nucleoside Phosphorylase [2]) of the same compound?
Its Km is 286 µM.

And the Vmax (Nucleoside Phosphorylase [2])?
The Vmax was 2.470 nmol/min/mg.

What does the source list for `O=c1[nH]c(=O)n([C@H]2C[C@H](O)[C@@H](CO)O2)cc1F` [5-Fluoro-2'-deoxyuridine, 5-fluoro-2'-deoxyuridine]?
Vmax /Km (Nucleoside Kinases [1]): 5.17 min^-1 × 10^3; Km (Nucleoside Kinases [1]): 3.1 µM; Vmax (Nucleoside Kinases [1]): 0.016 nmol/min/mg; Vmax /Km (Nucleoside Phosphorylase [2]): 111.90 min^-1 × 10^3; Km (Nucleoside Phosphorylase [2]): 215 µM; Vmax (Nucleoside Phosphorylase [2]): 24.041 nmol/min/mg; Vmax /Km (Nucleoside Kinases [3]): 2.89 min^-1 × 10^3; Km (Nucleoside Kinases [3]): 4.39 µM; Vmax (Nucleoside Kinases [3]): 0.013 nmol/min/mg; Vmax /Km (Nucleoside Phosphorylase [4]): 6.22 min^-1 × 10^3; Km (Nucleoside Phosphorylase [4]): 226 µM; Vmax (Nucleoside Phosphorylase [4]): 1.404 nmol/min/mg

For `O=c1ccn([C@@H]2O[C@H](CO)[C@@H](O)[C@H]2O)c(=O)[nH]1` [Uridine, uridine], which “Vmax /Km” value (Nucleoside Kinases [1]) is on record?
Its value is 0.55 min^-1 × 10^3.

What about the Km (Nucleoside Kinases [1]) of the same compound?
The Km was 55.8 µM.

And the Vmax (Nucleoside Kinases [1])?
The Vmax was 0.031 nmol/min/mg.

And the “Vmax /Km” value (Nucleoside Phosphorylase [2])?
The value was 172.00 min^-1 × 10^3.

What about the Km (Nucleoside Phosphorylase [2]) of the same compound?
Its Km is 99.1 µM.

And the Vmax (Nucleoside Phosphorylase [2])?
Its Vmax is 1.703 nmol/min/mg.

And the “Vmax /Km” value (Nucleoside Kinases [3])?
The value was 7.00 min^-1 × 10^3.

What about the Km (Nucleoside Kinases [3]) of the same compound?
Its Km is 40.3 µM.

And the Vmax (Nucleoside Kinases [3])?
Its Vmax is 0.027 nmol/min/mg.

What about the “Vmax /Km” value (Nucleoside Phosphorylase [4]) of the same compound?
Its value is 3.79 min^-1 × 10^3.

What about the Km (Nucleoside Phosphorylase [4]) of the same compound?
The Km was 114 µM.

What about the Vmax (Nucleoside Phosphorylase [4]) of the same compound?
The Vmax was 0.431 nmol/min/mg.

For `Cc1cn([C@H]2C[C@H](O)[C@@H](CO)O2)c(=O)[nH]c1=O` [Thymidine, thymidine], which “Vmax /Km” value (Nucleoside Kinases [1]) is on record?
Its value is 4.00 min^-1 × 10^3.

And the Km (Nucleoside Kinases [1])?
The Km was 6.41 µM.

What about the Vmax (Nucleoside Kinases [1]) of the same compound?
Its Vmax is 0.025 nmol/min/mg.

What about the “Vmax /Km” value (Nucleoside Phosphorylase [2]) of the same compound?
Its value is 76.15 min^-1 × 10^3.

What about the Km (Nucleoside Phosphorylase [2]) of the same compound?
The Km was 256 µM.

What about the Vmax (Nucleoside Phosphorylase [2]) of the same compound?
The Vmax was 19.471 nmol/min/mg.

What about the “Vmax /Km” value (Nucleoside Kinases [3]) of the same compound?
Its value is 2.40 min^-1 × 10^3.

What about the Km (Nucleoside Kinases [3]) of the same compound?
Its Km is 6.45 µM.

What about the Vmax (Nucleoside Kinases [3]) of the same compound?
Its Vmax is 0.015 nmol/min/mg.

What about the “Vmax /Km” value (Nucleoside Phosphorylase [4]) of the same compound?
Its value is 6.34 min^-1 × 10^3.

What about the Km (Nucleoside Phosphorylase [4]) of the same compound?
Its Km is 168 µM.

And the Vmax (Nucleoside Phosphorylase [4])?
Its Vmax is 1.068 nmol/min/mg.
